Data on 1 compound can be found in patent US8916703B2, “Dithiinopyridazinone derivates” (Bayer Intellectual Property GmbH, priority 2010, dated 2014).

Data set [1] in a line: logP by HPLC on reversed-phase column (EEC Directive 79/831 Annex V.A8). Particulars: reversed-phase C18 HPLC column, 43° C., acidic range pH 2.7 (0.1% formic acid/acetonitrile), read-out: Log P. It is filed as physicochemical. The procedure: The logP values reported in the preparation examples and tables above are determined in accordance with EEC Directive 79/831 Annex V.A8 by means of HPLC (High Performance Liquid Chromatography) on a reversed-phase column (C18). Temperature: 43° C. The determination with the LC-MS in the acidic range takes place at a pH of 2.7 using 0.1% aqueous formic acid and acetonitrile (containing 0.1% formic acid) as eluents; linear gradient from 10% acetonitrile to 95% acetonitrile. Calibration takes place using unbranched alkan-2-ones (having 3 to 16 carbon atoms) of which the logP values are known (logP values determined on the basis of the retention times, by linear interpolation between two successive alkanones).

In a further data set the test system is Puccinia recondita. Put plainly: Puccinia test (wheat)/protective. It is filed as in vivo. Particulars: wheat plants, protective spray, application rate 1500 ppm, evaluation 7-9 days after inoculation. The source says:
Puccinia Test (Wheat)/Protective
• Solvent: 49 parts by weight of N,N-dimethylformamide • Emulsifier: 1 part by weight of alkylaryl polyglycol ether
An appropriate preparation of active compound is produced by mixing 1 part by weight of active compound with the stated amounts of solvent and emulsifier and diluting the concentrate with water to the desired concentration. To test for protective activity, young wheat plants are sprayed with the preparation of active compound at the stated application rate. A day after the treatment, the plants are inoculated with a spore suspension of Puccinia recondita and then stand for 48 hours at 100% relative humidity and 22° C. Subsequently the plants stand at 80% relative humidity and a temperature of 20° C. After 7-9 days following inoculation, evaluation takes place. Here, 0% denotes an efficacy which corresponds to that of the control, whereas an efficacy of 100% means that no infestation is observed.

Take `CC(C)(C)n1ncc2c(c1=O)Sc1c(cnn(C(C)(C)C)c1=O)S2` [Compound 7, 2,8-di-tert-butyl[1,4]dithilino[2,3-d:5,6-d′]dipyridazine-1,9(2H,8H)-dione]: the chromatographic logP in data set [1] turned out to be 4.6. This compound had an Efficacy in % with Puccinia recondita of 70%.
